From patent US10533010B2, “Substituted indole Mcl-1 inhibitors” (Vanderbilt University, priority 2014, dated 2020)
Like-named read-outs stand apart in the source and are kept apart here.

Biological target: recombinant Mcl-1 (residues 172-327) (Homo sapiens (Human), UniProt Q07820)
Assay: Fluorescence polarization anisotropy competition assay (FITC-Bak or FITC-Bim BH3 peptide) with Mcl-1
Type: binding
Conditions: Table 2, FITC-Bak or FITC-Bim peptide competition, Ki converted from IC50, read-out: Ki for Inhibition of Mcl-1

Sequence of recombinant Mcl-1 (residues 172-327) (Q07820 172-327): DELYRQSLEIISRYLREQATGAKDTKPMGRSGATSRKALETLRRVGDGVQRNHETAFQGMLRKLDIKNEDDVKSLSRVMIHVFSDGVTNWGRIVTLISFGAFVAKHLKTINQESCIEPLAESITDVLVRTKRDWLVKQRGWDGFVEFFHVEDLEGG

`Cc1cc(OCCCc2c(C(=O)N3CCC(NC(=O)OC(C)(C)C)CC3)[nH]c3ccccc23)cc(C)c1Cl` [I-48, tert-butyl (1-(3-(3-(4-chloro-3,5-dimethylphenoxy)propyl)-1H-indole-2-carbonyl)piperidin-4-yl)carbamate] showed a Ki (Ki bins given in μM) of 1 to 9.99 µM.
Work on `Cc1cc(OCCCc2c3n(c4c(-c5c(C)nn(C)c5C)c(Cl)ccc24)CCN(c2cc(NC4CCOCC4)cc(C(=O)O)c2)C3=O)cc(C)c1Cl` [I-214, 3-(7-chloro-10-(3-(4-chloro-3,5-dimethylphenoxy)propyl)-1-oxo-6-(1,3,5-trimethyl-1H-pyrazol-4-yl)-3,4-dihydropyrazino[1,2-a]indol-2(1H)-yl)-5-((tetrahydro-2H-pyran-4-yl)amino)benzoic acid] yielded a Ki (Ki bins given in nM) of under 0.05 µM.
Compound `Cc1cc(OCCCc2c3n(c4c(-c5c(C)nn(C)c5C)c(Cl)ccc24)CCCN(Cc2cc(C(=O)O)cc(Cl)n2)C3=O)cc(C)c1Cl` [I-298, 2-chloro-6-((8-chloro-1-(3-(4-chloro-3,5-dimethylphenoxy)propyl)-1-oxo-7-(1,3,5-trimethyl-1H-pyrazol-4-yl)-4,5-dihydro-1H-[1,4]diazepino[1,2-a]indol-2(3H)-yl)methyl)isonicotinic acid] has a Ki (Ki bins given in nM) of under 0.05 µM.
Compound `Cc1cc(OCCCc2c(C(=O)N(C)Cc3ccc(C(=O)O)cc3)n(CCN3CCOCC3)c3c(-c4c(C)nn(C)c4C)c(Cl)ccc23)cc(C)c1Cl` [I-374, 4-((6-chloro-3-(3-(4-chloro-3,5-dimethylphenoxy)propyl)-N-methyl-1-(2-morpholinoethyl)-7-(1,3,5-trimethyl-1H-pyrazol-4-yl)-1H-indole-2-carboxamido)methyl)benzoic acid] has a Ki (Ki bins given in nM) of under 0.05 µM.
`Cc1cc(OCCCc2c3n(c4c(-c5c(C)nn(C)c5C)c(Cl)ccc24)CCCN(c2cc(C(=O)O)c4cc[nH]c4c2)C3=O)cc(C)c1Cl` [I-253, 6-(8-chloro-11-(3-(4-chloro-3,5-dimethylphenoxy)propyl)-1-oxo-7-(1,3,5-trimethyl-1H-pyrazol-4-yl)-4,5-dihydro-1H-[1,4]diazepino[1,2-a]indol-2(3H)-yl)-1H-indole-4-carboxylic acid] was tested, and the Ki (Ki bins given in nM) was under 0.05 µM.
`Cc1cc(OCCCc2c3n(c4c(-c5c(C)nn(C)c5C)c(Cl)ccc24)CCCN(c2ccc(C#N)cc2)C3=O)cc(C)c1Cl` [I-356, 4-(8-chloro-11-(3-(4-chloro-3,5-dimethylphenoxy)propyl)-1-oxo-7-(1,3,5-trimethyl-1H-pyrazol-4-yl)-4,5-dihydro-1H-[1,4]diazepino[1,2-a]indol-2(3H)-yl)benzonitrile] showed a Ki (Ki bins given in nM) of 0.051 to 0.1 µM.
`Cc1cc(OCCCc2c3n(c4c(-c5c(C)nn(C)c5C)c(Cl)ccc24)CCCN(c2cc(C(=O)O)cc(N(C)CCN(C)C)c2)C3=O)cc(C)c1Cl` [I-211, 3-(8-chloro-11-(3-(4-chloro-3,5-dimethylphenoxy)propyl)-1-oxo-7-(1,3,5-trimethyl-1H-pyrazol-4-yl)-4,5-dihydro-1H-[1,4]diazepino[1,2-a]indol-2(3H)-yl)-5-((2-(dimethylamino)ethyl)(methyl)amino)benzoic acid] was tested, and the Ki (Ki bins given in nM) was under 0.05 µM.
For `Cc1cc(OCCCc2c(C(=O)N3CCc4c(C(=O)O)cccc43)[nH]c3c(-c4c(C)nn(C)c4C)cccc23)cc(C)c1Cl` [I-202, 1-(3-(3-(4-chloro-3,5-dimethylphenoxy)propyl)-7-(1,3,5-trimethyl-1H-pyrazol-4-yl)-1H-indole-2-carbonyl)indoline-4-carboxylic acid], the Ki (Ki bins given in nM) was 0.051 to 0.1 µM.
With `Cc1cc(OCCCc2c3n(c4c(-c5c(C)nn(C)c5C)cccc24)CCCN(Cc2cc(C(=O)O)cc(N4CCCC4)c2)C3=O)cc(C)c1Cl` [I-84, 3-((11-(3-(4-chloro-3,5-dimethylphenoxy)propyl)-1-oxo-7-(1,3,5-trimethyl-1H-pyrazol-4-yl)-4,5-dihydro-1H-[1,4]diazepino[1,2-a]indol-2(3H)-yl)methyl)-5-(pyrrolidin-1-yl)benzoic acid] the Ki (Ki bins given in nM) was 0.101 to 0.299 µM.
Compound `Cc1cc(OCCCc2c3n(c4c(-c5c(C)nn(C)c5C)c(Cl)ccc24)CCCN(c2cc(CN4CCOCC4)cc(C(=O)O)c2)C3=O)cc(C)c1Cl` [I-227, 3-(8-chloro-11-(3-(4-chloro-3,5-dimethylphenoxy)propyl)-1-oxo-7-(1,3,5-trimethyl-1H-pyrazol-4-yl)-4,5-dihydro-1H-[1,4]diazepino[1,2-a]indol-2(3H)-yl)-5-(morpholinomethyl)benzoic acid] has a Ki (Ki bins given in nM) of under 0.05 µM.
For `Cc1cc(OCCCc2c(C(=O)NC[C@H]3CC[C@H](C(=O)O)CC3)[nH]c3c(-c4c(C)nn(C)c4C)c(Cl)ccc23)cc(C)c1Cl` [I-324, (1r,4r)-4-((6-chloro-3-(3-(4-chloro-3,5-dimethylphenoxy)propyl)-7-(1,3,5-trimethyl-1H-pyrazol-4-yl)-1H-indole-2-carboxamido)methyl)cyclohexane-1-carboxylic acid], the Ki (Ki bins given in nM) was under 0.05 µM.
For `Cc1cnccc1-c1cc(C(=O)O)cc(N2CCCn3c(c(CCCOc4cc(C)c(Cl)c(C)c4)c4ccc(Cl)c(-c5c(C)nn(C)c5C)c43)C2=O)c1` [I-233, 3-(8-chloro-11-(3-(4-chloro-3,5-dimethylphenoxy)propyl)-1-oxo-7-(1,3,5-trimethyl-1H-pyrazol-4-yl)-4,5-dihydro-1H-[1,4]diazepino[1,2-a]indol-2(3H)-yl)-5-(3-methylpyridin-4-yl)benzoic acid], the Ki (Ki bins given in nM) was under 0.05 µM.
With `Cc1cc(OCCCc2c(C(=O)N3CCC(C(=O)O)C3)[nH]c3c(-c4c(C)nn(C)c4C)c(Cl)ccc23)cc(C)c1Cl` (centres unmarked) [I-336, 1-(6-chloro-3-(3-(4-chloro-3,5-dimethylphenoxy)propyl)-7-(1,3,5-trimethyl-1H-pyrazol-4-yl)-1H-indole-2-carbonyl)pyrrolidine-3-carboxylic acid] the Ki (Ki bins given in nM) was under 0.05 µM.
`CC/N=C(/NCCCN(C)C)n1nc(C)c(-c2cccc3c(CCCOc4cc(C)c(Cl)c(C)c4)c(C(=O)NCc4cccc(C(=O)O)c4)[nH]c23)c1C` [I-70, 3-((3-(3-(4-chloro-3,5-dimethylphenoxy)propyl)-7-(1-(N-(3-(dimethylamino)propyl)-N′-ethylcarbamimidoyl)-3,5-dimethyl-1H-pyrazol-4-yl)-1H-indole-2-carboxamido)methyl)benzoic acid] was tested, and the Ki (Ki bins given in nM) was 0.051 to 0.1 µM.
Work on `Cc1cc(OCCCc2c3n(c4c(-c5c(C)nn(C)c5C)c(Cl)ccc24)CCCN(c2cc(Cn4ccnc4)cc(C(=O)O)c2)C3=O)cc(C)c1Cl` [I-229, 3-((1H-imidazol-1-yl)methyl)-5-(8-chloro-11-(3-(4-chloro-3,5-dimethylphenoxy)propyl)-1-oxo-7-(1,3,5-trimethyl-1H-pyrazol-4-yl)-4,5-dihydro-1H-[1,4]diazepino[1,2-a]indol-2(3H)-yl)benzoic acid] yielded a Ki (Ki bins given in nM) of under 0.05 µM.
Compound `Cc1cc(OCCCc2c3n(c4c(-c5c(C)nn(C)c5C)c(Cl)ccc24)CCCN(c2cc(C(=O)O)c4c(Br)cn(C)c4c2)C3=O)cc(C)c1Cl` [I-258, 3-bromo-6-(8-chloro-11-(3-(4-chloro-3,5-dimethylphenoxy)propyl)-1-oxo-7-(1,3,5-trimethyl-1H-pyrazol-4-yl)-4,5-dihydro-1H-[1,4]diazepino[1,2-a]indol-2(3H)-yl)-1-methyl-1H-indole-4-carboxylic acid] has a Ki (Ki bins given in nM) of under 0.05 µM.
`Cc1cc(OCCCc2c(C(=O)NCc3ccc(Oc4ccccc4)cc3)[nH]c3ccccc23)cc(C)c1Cl` [I-45, 3-(3-(4-chloro-3,5-dimethylphenoxy)propyl)-N-(4-phenoxybenzyl)-1H-indole-2-carboxamide] showed a Ki (Ki bins given in μM) of 10 to 50 µM.
